Results as given in patent US20070166367A1, “Adept or gdept producing acetaldehyde” (priority 2004, published 2007).
Like-named read-outs stand apart in the source and are kept apart here.

What was measured:
[1] = in vivo; cited from earlier work
[2] = test system: CaCo-2 (Human colorectal cancer cells); settings: cited from earlier work; for Doubling Time: 72 hrs
[3] = ethanol fed animals, cited from earlier work
[4] = ethanol IP 3 g/kg, +30 minutes, cited from earlier work
[5] = test system: Hela; assay: in vitro acetaldehyde toxicity assay; format: cell-based; settings: 250 uM acetaldehyde
Protocol: (§1) Standard tissue culture techniques were used to maintain Hela, Daudi, Jurkat, CMT-64 cells in flasks in DMEM+10% FCS in a 37° C. incubator.
(§2) Cell lines subcloned into 25-cm^2 flasks and incubated in media containing dilutions of acetaldehyde, cisplatin or both. Flasks remained sealed during incubation and the media and acetaldehyde/cisplatin were replaced daily. Viable cell counts were made using Trypan blue exclusion and a standard haemocytometer.

[6] = in vitro acetaldehyde toxicity assay; format: cell-based; settings: human, Jurkat cells; higher concentrations (500 uM and 1 mM), day 3, FIG. 1; read-out: viable cell numbers as % of starting number
Protocol: as §1, §2

[7] = test system: Jurkat; assay: in vitro acetaldehyde toxicity assay; format: cell-based
Protocol: as §1, §2

[8] = tissue culture at 37° C., cited from earlier work
[9] = molecular target: T1, Acetaldehyde dehydrogenase 2 (ALDH2) (Homo sapiens, UniProt P05091); settings: cited from earlier work
T1 sequence (P05091 18-517): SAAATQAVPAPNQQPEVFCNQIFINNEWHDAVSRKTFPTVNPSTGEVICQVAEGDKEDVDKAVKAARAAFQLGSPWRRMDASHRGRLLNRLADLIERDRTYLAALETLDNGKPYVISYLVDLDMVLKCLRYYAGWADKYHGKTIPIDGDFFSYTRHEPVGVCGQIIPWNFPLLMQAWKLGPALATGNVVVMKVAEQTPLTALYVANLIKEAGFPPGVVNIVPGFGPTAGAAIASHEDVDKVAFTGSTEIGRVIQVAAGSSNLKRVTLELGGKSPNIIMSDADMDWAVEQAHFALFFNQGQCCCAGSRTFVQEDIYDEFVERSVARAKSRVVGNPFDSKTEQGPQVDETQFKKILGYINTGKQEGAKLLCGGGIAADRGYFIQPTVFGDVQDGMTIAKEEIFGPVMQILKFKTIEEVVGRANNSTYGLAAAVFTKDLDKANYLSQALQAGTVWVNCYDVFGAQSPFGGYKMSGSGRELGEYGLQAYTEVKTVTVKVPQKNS

[10] = test system: DNA; settings: cited from earlier work
[11] = test system: Human Lymphocytes; settings: cited from earlier work
[12] = acetaldehyde in breath and blood after ethanol consumption; format: in vivo; settings: suggested from breath values and partition coefficient
[13] = molecular target: T2, aldehyde dehydrogenase 1 (ALDH1) (Homo sapiens, UniProt P00352); settings: cited from earlier work
T2 sequence (P00352 1-501): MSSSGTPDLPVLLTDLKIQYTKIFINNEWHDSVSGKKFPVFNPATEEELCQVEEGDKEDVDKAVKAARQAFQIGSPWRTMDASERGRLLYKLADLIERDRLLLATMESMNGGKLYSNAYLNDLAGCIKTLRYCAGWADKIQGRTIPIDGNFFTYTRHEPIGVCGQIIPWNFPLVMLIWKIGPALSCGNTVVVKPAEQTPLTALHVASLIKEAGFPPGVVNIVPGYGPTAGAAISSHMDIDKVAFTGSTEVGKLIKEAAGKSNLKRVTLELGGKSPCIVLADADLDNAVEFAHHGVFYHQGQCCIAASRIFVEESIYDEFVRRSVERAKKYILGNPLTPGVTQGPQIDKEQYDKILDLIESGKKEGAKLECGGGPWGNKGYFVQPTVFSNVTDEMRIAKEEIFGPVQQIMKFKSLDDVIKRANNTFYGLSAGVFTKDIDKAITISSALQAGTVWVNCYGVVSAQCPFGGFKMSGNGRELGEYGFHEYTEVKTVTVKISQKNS

[14] = test system: Human Fibroblasts; settings: 5 hr exposure, cited from earlier work

CC=O [acetaldehyde]
level described for systemic acetaldehyde toxicity [1]: 40 to 60 µM | Cytotoxicity ([2]; 500 μM and 1000 μM acetaldehyde for 72 hrs): No significant effects. | Doubling Time ([2]; 500 μM): 150 % of control | Doubling Time ([2]; 1000 μM): 270 % of control | cellular conc ([3]; colon): about 250 μM | Acetaldehyde levels in colonic contents [3]: exceed 3 mM | acetaldehyde levels ([4]; ADH overexpressing heart): 70 µM | acetaldehyde levels ([4]; control heart): 15 µM | effect on proliferation [5]: reduction in the rate of proliferation | viability at 3 days [6]: 7% | effect on proliferation ([7]; 250 uM acetaldehyde): reduction in the rate of proliferation | viable cells ([7]; day 4, FIG. 1): no Jurkat cells viable | ½ life [8]: about 30 minutes | ½ life ([8]; listed as Acetaldehyde): 30 min | Km [9]: 3.5 µM | concentration that is toxic and produces irreparable DNA damage [10]: 1.56 mM | Number of metaphases (cell divisions) counted ([11]; 90 μM): 200 | Number of metaphases (cell divisions) counted ([11]; 180 μM): 200 | Number of metaphases (cell divisions) counted ([11]; 360 μM): 200 | Number of metaphases (cell divisions) counted ([11]; 720 μM): 130 | Number of metaphases (cell divisions) counted ([11]; 1080 μM): 23 | Number of metaphases (cell divisions) counted ([11]; 1440 μM): 0 and no growth | blood values [12]: 1 to 260 µM | Km [13]: 22 µM | % survival ([14]; 1 mM): 75% | % survival ([14]; 2 mM): 55%
